Data taken from the NIST ThermoML archive (doi:10.1016/j.fluid.2017.08.016).
Values joined by “and” are separate entries in the source; they are usually repeats but may differ in a detail not shown here. Equal entries are not always repeated. Numbers after ± are expanded uncertainties.

Conditions: for mass density: 101.33 kPa, Liquid, Vibrating tube method; for surface tension liquid-gas: Pendant drop shape

Compound	mass density (303.15 K) [kg/m3]	surface tension liquid-gas (303.16 K) [mN/m]	mass density (303.16 K) [kg/m3]	mass density (308.15 K) [kg/m3]	mass density (313.15 K)	surface tension liquid-gas (313.16 K) [mN/m]	mass density (313.16 K) [kg/m3]	mass density (318.15 K) [kg/m3]	mass density (323.15 K)	mass density (328.15 K) [kg/m3]	mass density (333.15 K)	mass density (338.15 K) [kg/m3]	mass density (343.15 K)	mass density (348.15 K) [kg/m3]	mass density (353.15 K) [kg/m3]	surface tension liquid-gas (353.16 K) [mN/m]	mass density (353.16 K) [kg/m3]	mass density (358.15 K) [kg/m3]	mass density (363.15 K)	surface tension liquid-gas (363.16 K) [mN/m]	other results
COCCOCCOC [2,5,8-trioxanonane]	933.98 ± 1.9	28.54 ± 0.74	933.65 ± 0.94	928.95 ± 1.9	923.97 ± 1.9 kg/m3	27.57 ± 0.72	923.61 ± 0.93	918.94 ± 1.8	913.9 ± 1.8 kg/m3	908.84 ± 1.8	903.76 ± 1.8 kg/m3 and 903.38 ± 0.91 kg/m3	898.67 ± 1.8	893.55 ± 1.8 kg/m3 and 893.13 ± 0.9 kg/m3	888.41 ± 1.8	883.24 ± 1.8	22.87 ± 0.6	882.79 ± 0.89	878.04 ± 1.8	872.81 ± 1.8 kg/m3	–	surface tension liquid-gas (323.17 K): 26.27 ± 0.68 mN/m; mass density (323.17 K): 913.51 ± 0.92 kg/m3; surface tension liquid-gas (333.15 K): 24.98 ± 0.65 mN/m; surface tension liquid-gas (343.15 K): 23.79 ± 0.62 mN/m; surface tension liquid-gas (363.14 K): 21.68 ± 0.57 mN/m; mass density (363.14 K): 872.36 ± 0.88 kg/m3; surface tension liquid-gas (373.14 K): 20.53 ± 0.54 mN/m; mass density (373.14 K): 861.79 ± 0.87 kg/m3; surface tension liquid-gas (383.16 K): 19.43 ± 0.51 mN/m; mass density (383.16 K): 851.06 ± 0.86 kg/m3; surface tension liquid-gas (393.15 K): 18.37 ± 0.49 mN/m; mass density (393.15 K): 840.22 ± 0.85 kg/m3
CCCCC(CC)COC(C)=O (centres undefined) [2-ethylhexyl acetate]	863.51 ± 1.7	–	–	859.15 ± 1.7	854.77 ± 1.7 kg/m3	24.23 ± 0.64	854.84 ± 0.88	850.39 ± 1.7	846.01 ± 1.7 kg/m3	841.61 ± 1.7	837.2 ± 1.7 kg/m3 and 837.29 ± 0.87 kg/m3	832.78 ± 1.7	828.35 ± 1.7 kg/m3 and 828.44 ± 0.86 kg/m3	823.91 ± 1.7	819.45 ± 1.6	20.22 ± 0.54	819.54 ± 0.85	814.98 ± 1.6	810.49 ± 1.6 kg/m3 and 810.59 ± 0.84 kg/m3	–	surface tension liquid-gas (303.17 K): 25.15 ± 0.66 mN/m; mass density (303.17 K): 863.56 ± 0.89 kg/m3; surface tension liquid-gas (323.16 K): 23.23 ± 0.62 mN/m; mass density (323.16 K): 846.08 ± 0.87 kg/m3; surface tension liquid-gas (333.15 K): 22.28 ± 0.59 mN/m; surface tension liquid-gas (343.15 K): 21.27 ± 0.57 mN/m; surface tension liquid-gas (363.15 K): 19.26 ± 0.52 mN/m; surface tension liquid-gas (373.15 K): 18.35 ± 0.49 mN/m; mass density (373.15 K): 801.56 ± 0.83 kg/m3; surface tension liquid-gas (383.15 K): 17.44 ± 0.47 mN/m; mass density (383.15 K): 792.46 ± 0.82 kg/m3; surface tension liquid-gas (393.16 K): 16.59 ± 0.45 mN/m; mass density (393.16 K): 783.27 ± 0.82 kg/m3
COCCO [2-methoxyethan-1-ol]	956.73 ± 1.9	30.06 ± 0.78	956.41 ± 0.96	952.09 ± 1.9	947.42 ± 1.9 kg/m3	–	–	942.72 ± 1.9	937.98 ± 1.9 kg/m3	933.21 ± 1.9	928.39 ± 1.9 kg/m3	923.54 ± 1.9	918.64 ± 1.8 kg/m3	913.69 ± 1.8	908.7 ± 1.8	24.7 ± 0.64	908.26 ± 0.91	903.65 ± 1.8	898.55 ± 1.8 kg/m3	23.6 ± 0.62	surface tension liquid-gas (313.14 K): 29.01 ± 0.75 mN/m; mass density (313.14 K): 947.1 ± 0.95 kg/m3; surface tension liquid-gas (323.16 K): 27.98 ± 0.72 mN/m; mass density (323.16 K): 937.62 ± 0.94 kg/m3; surface tension liquid-gas (333.14 K): 26.9 ± 0.7 mN/m; mass density (333.14 K): 928.03 ± 0.93 kg/m3; surface tension liquid-gas (343.16 K): 25.88 ± 0.67 mN/m; mass density (343.16 K): 918.23 ± 0.92 kg/m3; mass density (363.16 K): 898.09 ± 0.9 kg/m3; surface tension liquid-gas (373.16 K): 22.56 ± 0.59 mN/m; mass density (373.16 K): 887.7 ± 0.89 kg/m3; surface tension liquid-gas (383.17 K): 21.58 ± 0.56 mN/m; mass density (383.17 K): 877.05 ± 0.88 kg/m3; surface tension liquid-gas (393.17 K): 20.51 ± 0.54 mN/m; mass density (393.17 K): 866.15 ± 0.87 kg/m3
CCOC(=O)CCC(=O)OCC [diethyl butanedioate]	1029.59 ± 2.1	30.62 ± 0.8	1029.57 ± 1.1	1024.4 ± 2.1	1019.2 ± 2 kg/m3 and 1019.2 ± 1.1 kg/m3	–	–	1014.01 ± 2	1008.81 ± 2 kg/m3 and 1008.81 ± 1 kg/m3	1003.6 ± 2	998.39 ± 2 kg/m3	993.16 ± 2	987.93 ± 2 kg/m3	982.7 ± 2	977.45 ± 2	25.12 ± 0.66	977.44 ± 1	972.19 ± 2	966.91 ± 1.9 kg/m3	24.02 ± 0.64	surface tension liquid-gas (313.15 K): 29.55 ± 0.78 mN/m; surface tension liquid-gas (323.15 K): 28.42 ± 0.75 mN/m; surface tension liquid-gas (333.17 K): 27.41 ± 0.72 mN/m; mass density (333.17 K): 998.37 ± 1 kg/m3; surface tension liquid-gas (343.17 K): 26.33 ± 0.69 mN/m; mass density (343.17 K): 987.91 ± 1 kg/m3; mass density (363.16 K): 966.9 ± 0.99 kg/m3; surface tension liquid-gas (373.14 K): 22.95 ± 0.61 mN/m; mass density (373.14 K): 956.34 ± 0.98 kg/m3; surface tension liquid-gas (383.15 K): 21.96 ± 0.58 mN/m; mass density (383.15 K): 945.69 ± 0.97 kg/m3; surface tension liquid-gas (393.17 K): 21.03 ± 0.56 mN/m; mass density (393.17 K): 934.96 ± 0.96 kg/m3
Cc1ccccc1 [toluene]	–	27.15 ± 0.42	–	–	–	–	–	–	–	–	–	–	–	–	–	–	–	–	–	20.37 ± 0.33	surface tension liquid-gas (308.15 K): 26.51 ± 0.42 mN/m; surface tension liquid-gas (313.15 K): 25.98 ± 0.41 mN/m; surface tension liquid-gas (318.13 K): 25.42 ± 0.4 mN/m; surface tension liquid-gas (323.15 K): 24.89 ± 0.39 mN/m; surface tension liquid-gas (328.16 K): 24.34 ± 0.38 mN/m; surface tension liquid-gas (333.14 K): 23.65 ± 0.38 mN/m; surface tension liquid-gas (338.16 K): 23.08 ± 0.37 mN/m; surface tension liquid-gas (343.16 K): 22.55 ± 0.36 mN/m; surface tension liquid-gas (348.16 K): 21.98 ± 0.35 mN/m; surface tension liquid-gas (353.15 K): 21.45 ± 0.34 mN/m; surface tension liquid-gas (358.15 K): 20.92 ± 0.34 mN/m; surface tension liquid-gas (368.14 K): 19.86 ± 0.32 mN/m
